From PMC5608758, “A brain-targeting lipidated peptide for neutralizing RNA-mediated toxicity in Polyglutamine Diseases” (Scientific Reports, 2017) come the findings set out here.

The data set has as its system DsRed CAG0 Drosophila. As to the kind of experiment: Pseudopupil assay in control flies (toxicity). Format: in vivo. The following applies: P3V8 at up to 50 µM. The procedure:
Flies were raised at 21.5 °C on cornmeal medium supplemented with dry yeast. Fly lines bearing UAS-DsRed CAG0 and UAS-DsRed CAG100 were kind gifts of Professor Nancy Bonini (University of Pennsylvania, USA). The gmr-GAL4 fly line was obtained from Bloomington Drosophila Stock Center. […] Pseudopupil assay was performed on 12 day-old adult flies as mentioned previously. Images were captured by SPOT Insight CCD camera controlled by the SPOT Advanced software (Diagnostic instruments Inc.). Image processing was performed using the Adobe Photoshop CS software (Adobe). Each experiment was repeated at least 3 times (n = 10 fly heads), and consistent results were obtained. For viability test of wild-type flies from egg to adult stage, eggs born within 5 hr were collected and cultured in fly food containing 10 or 50 μM of respective peptides at 21.5°C. Viability from egg-to-adult was calculated as the number of adult flies collected divided by the number of eggs examined. Each experiment was repeated for three times (at least 130 eggs were examined in each group). Two batches of independently synthesized peptides were used in the experiments.

Molecules are shown by their SMILES. Residues, ends and D or L forms follow the SMILES beside them. *: point of attachment. Palmitoyl = CCCCCCCCCCCCCCCC(=O)*

For the compound `CCCCCCCCCCCCCCCC(=O)N[C@@H](CC(=O)O)C(=O)NCC(=O)N[C@@H](CCCCN)C(=O)N[C@@H](CO)C(=O)N[C@@H](CCCCN)C(=O)NCC(=O)N[C@H](C(=O)N[C@@H](C)C(=O)N[C@@H](Cc1ccc(O)cc1)C(=O)N[C@H](C(=O)N[C@@H](CCC(=O)O)C(=O)N[C@@H](Cc1ccccc1)C(=O)N[C@@H](CCCCN)C(N)=O)[C@@H](C)CC)[C@@H](C)CC` [L1P3V8] (Palmitoyl-DGKSKGIAYIEFK-NH2), the “toxic effect on control flies” value is reported as “no cytotoxic effects”.
